Experimental data as given in patent US9675595B2, “Synergistic combinations of PI3K- and MEK-inhibitors” (Novartis AG, priority 2011, dated 2017).
Where two headings read alike, the source gives them in different places.

Key:
Type in all cases: cell-based
LS123 = assay: Cell viability (CellTiterGlo, 72 h), Example 1; conditions: Homo sapiens, LS-123, single agent
Source text: (§1) The colorectal cancer cell lines SW1417, COLO 205, LS411N, HT-29, RKO, OUMS-23, SW620, LoVo, SW480, SW837, COLO-678, LS123-NCI—H747, HCT-15, HCT116, DLD-1, T84, SW948, LS180, GP2d, HuTu 80, CW-2, SW48, NCI—H716, C2Bbe1, SNU—C1 and KM12 are obtained from the American Type Culture Collection (ATCC) and maintained in their respective culture medium as specified by the provider. These colorectal cancer cell lines have the following mutation status:
(§2) For assessment of combination effects, cells are seeded into 384-well plates at 500 cells/well and incubated overnight. The contents of the compound master plates are pre-diluted with 1:200 (1 μL compound solution to 200 μL cell […] culture medium containing 10% fetal clf serum) before transferring 5 μL of this pre-dilution to the cell plates containing 20 μL cell culture medium, to achieve the targeted final compound concentrations as well as a vehicle (DMSO) concentration of 0.09%.
(§3) Effects of single agents as well as their checkerboard combinations on cell viability are assessed after 72 hours of incubation at 37° C./5% CO2 by quantification of cellular ATP levels (CellTiterGlo, Promega) using 25 μL reagent/well and n=2 repliate plates per condition. The number/viability of cells at the time of compound addition was likewise assessed and used to estimate the population doubling time of the particular cell line. Single agent IC50s are calculated using standard four-parametric curve fitting (SLFit, model 205). Potential synergistic interactions between compound combinations are assessed using the Excess Inhibition 2D matrix according to the Loewe additivity model and are reported as Synergy Score. In addition, compound combinations are assessed by combination index analysis derived from isobologram graphs at 50% inhibition, and are reported as best combination index (CI), which corresponds to the lowest value on the isobologram. All synergy calculations are performed using CHALICE software (Lehár et al, Nat Biotechnol. (July 2009), 27(4): 69:66).

OUMS-23 = assay: Cell viability (CellTiterGlo, 72 h), Example 1; conditions: single agent
Source text: as §1, §2, §3

RKO = assay: Cell viability (CellTiterGlo, 72 h), Example 1; conditions: Homo sapiens, single agent
Source text: as §1, §2, §3

SW620 = assay: Cell viability (CellTiterGlo, 72 h), Example 1; conditions: Homo sapiens, SW-620, single agent
Source text: as §1, §2, §3

LS 180 = assay: Cell viability (CellTiterGlo, 72 h), Example 1; conditions: Homo sapiens, LS180, single agent
Source text: as §1, §2, §3

CW-2 = assay: Cell viability (CellTiterGlo, 72 h), Example 1; conditions: Homo sapiens, single agent
Source text: as §1, §2, §3

LS411N = assay: Cell viability (CellTiterGlo, 72 h), Example 1; conditions: Homo sapiens, LS-411N, single agent
Source text: as §1, §2, §3

HuTu 80 = assay: Cell viability (CellTiterGlo, 72 h), Example 1; conditions: Homo sapiens, HuTu80, single agent
Source text: as §1, §2, §3

SW837 = assay: Cell viability (CellTiterGlo, 72 h), Example 1; conditions: Homo sapiens, single agent
Source text: as §1, §2, §3

T84 = assay: Cell viability (CellTiterGlo, 72 h), Example 1; conditions: Homo sapiens, duplicate data points and dose response display some scatter, single agent
Source text: as §1, §2, §3

HCT 116 = assay: Cell viability (CellTiterGlo, 72 h), Example 1; conditions: Homo sapiens, HCT-116, 72 h
Source text: as §1, §2, §3

SW480 = assay: Cell viability (CellTiterGlo, 72 h), Example 1; conditions: Homo sapiens, single agent
Source text: as §1, §2, §3

SW1417 = assay: Cell viability (CellTiterGlo, 72 h), Example 1; conditions: Homo sapiens, single agent
Source text: as §1, §2, §3

HT-29 = assay: Cell viability (CellTiterGlo, 72 h), Example 1; conditions: Homo sapiens, HT-29, 72 h
Source text: as §1, §2, §3

GP2d = assay: Cell viability (CellTiterGlo, 72 h), Example 1; conditions: single agent
Source text: as §1, §2, §3

KM12 = assay: Cell viability (CellTiterGlo, 72 h), Example 1; conditions: Homo sapiens, single agent
Source text: as §1, §2, §3

NCI-H716 = assay: Cell viability (CellTiterGlo, 72 h), Example 1; conditions: Homo sapiens, single agent
Source text: as §1, §2, §3

SW948 = assay: Cell viability (CellTiterGlo, 72 h), Example 1; conditions: Homo sapiens, duplicate data points and dose response display some scatter, single agent
Source text: as §1, §2, §3

C2BBe1 = assay: Cell viability (CellTiterGlo, 72 h), Example 1; conditions: Homo sapiens, single agent
Source text: as §1, §2, §3

SNU-C1 = assay: Cell viability (CellTiterGlo, 72 h), Example 1; conditions: Homo sapiens, single agent
Source text: as §1, §2, §3

LoVo = assay: Cell viability (CellTiterGlo, 72 h), Example 1; conditions: Homo sapiens, single agent
Source text: as §1, §2, §3

COLO205 = assay: Cell viability (CellTiterGlo, 72 h), Example 1; conditions: Homo sapiens, COLO 205, single agent
Source text: as §1, §2, §3

SW48 = assay: Cell viability (CellTiterGlo, 72 h), Example 1; conditions: Homo sapiens, single agent
Source text: as §1, §2, §3

HCT-15 = assay: Cell viability (CellTiterGlo, 72 h), Example 1; conditions: Homo sapiens, single agent
Source text: as §1, §2, §3

[1] = system: colorectal cancer cell lines; assay: Cell viability (CellTiterGlo, 72 h), Example 1, whole panel; conditions: repeat experiments (*) excluded
Source text: as §1, §2
as §3, with “[…]). Interpretation of values for combination index and synergy score are provided below:” for “69:66).”
Pairwise multiple comparisons of the result groups are performed by one-way ANOVA (Neuman-Keuls method) using GraphPad Prism 5 (GraphPad Software Inc.). Results

Structure (SMILES): Cc1nc(NC(=O)N2CCC[C@H]2C(N)=O)sc1-c1ccnc(C(C)(C)C(F)(F)F)c1 [COMPOUND A, (S)-pyrrolidine-1,2-dicarboxylic acid 2-amide 1-({4-methyl-5-[2-(2,2,2-trifluoro-1,1-dimethyl-ethyl)-pyridin-4-yl]-thiazol-2-yl}-amide)]
- IC50 (LS123; read-out: Cmpd. A IC50): 7250 nM
- IC50 (OUMS-23; read-out: Cmpd. A IC50): > 10800 nM
- IC50 (RKO; read-out: Cmpd. A IC50): 6730 nM
- IC50 (SW620; read-out: Cmpd. A IC50): > 10800 nM
- IC50 (LS 180; read-out: Cmpd. A IC50): 5080 nM
- IC50 (CW-2; read-out: Cmpd. A IC50): > 10800 nM
- IC50 (LS411N; read-out: Cmpd. A IC50): 8670 nM
- IC50 (HuTu 80; read-out: Cmpd. A IC50): 8840 nM
- IC50 (SW837; read-out: Cmpd. A IC50): 7280 nM
- IC50 (T84; read-out: Cmpd. A IC50): 4160 nM
- IC50 (HCT 116; HCT 116*, repeat experiment performed at end of study, single agent, read-out: Cmpd. A IC50): 8320 nM
- IC50 (HCT 116; HCT 116, single agent, read-out: Cmpd. A IC50): 9420 nM
- IC50 (SW480; read-out: Cmpd. A IC50): 9350 nM
- IC50 (SW1417; read-out: Cmpd. A IC50): 7850 nM
- IC50 (HT-29; HT-29*, repeat experiment performed at end of study, single agent, read-out: Cmpd. A IC50): 4280 nM
- IC50 (HT-29; HT-29, single agent, read-out: Cmpd. A IC50): 5200 nM
- IC50 (GP2d; read-out: Cmpd. A IC50): 698 nM
- IC50 (KM12; read-out: Cmpd. A IC50): > 10800 nM
- IC50 (NCI-H716; read-out: Cmpd. A IC50): > 10800 nM
- IC50 (SW948; read-out: Cmpd. A IC50): 1190 nM
- IC50 (C2BBe1; read-out: Cmpd. A IC50): 9200 nM
- IC50 (SNU-C1; read-out: Cmpd. A IC50): 2430 nM
- IC50 (LoVo; read-out: Cmpd. A IC50): 8660 nM
- IC50 (COLO205; read-out: Cmpd. A IC50): > 10800 nM
- IC50 (SW48; read-out: Cmpd. A IC50): 1410 nM
- IC50 (HCT-15; read-out: Cmpd. A IC50): 6720 nM
- IC50 ([1]; Mean over colorectal cell lines, read-out: Mean Cmpd. A IC50): 7510 nM
- IC50 ([1]; Median over colorectal cell lines, read-out: Median Cmpd. A IC50): 8660 nM

Structure (SMILES): Cn1cnc2c(F)c(Nc3ccc(Br)cc3F)c(C(=O)NOCCO)cc21 [COMPOUND B, 6-(4-bromo-2-fluorophenylamino)-7-fluoro-3-methyl-3H-benzoimidazole-5-carboxylic acid (2-hydroxyethoxy)-amide]
- IC50 (LS123; read-out: Cmpd. B IC50): 2280 nM
- IC50 (OUMS-23; read-out: Cmpd. B IC50): > 2700 nM
- IC50 (RKO; read-out: Cmpd. B IC50): > 2700 nM
- IC50 (SW620; read-out: Cmpd. B IC50): 26.9 nM
- IC50 (LS 180; read-out: Cmpd. B IC50): 143 nM
- IC50 (CW-2; read-out: Cmpd. B IC50): > 2700 nM
- IC50 (LS411N; read-out: Cmpd. B IC50): 54.7 nM
- IC50 (HuTu 80; read-out: Cmpd. B IC50): > 2700 nM
- IC50 (SW837; read-out: Cmpd. B IC50): 557 nM
- IC50 (T84; read-out: Cmpd. B IC50): 12800 nM
- IC50 (HCT 116; HCT 116*, repeat experiment performed at end of study, single agent, read-out: Cmpd. B IC50): 735 nM
- IC50 (HCT 116; HCT 116, single agent, read-out: Cmpd. B IC50): 881 nM
- IC50 (SW480; read-out: Cmpd. B IC50): 2030 nM
- IC50 (SW1417; read-out: Cmpd. B IC50): 53.9 nM
- IC50 (HT-29; HT-29*, repeat experiment performed at end of study, single agent, read-out: Cmpd. B IC50): 66.5 nM
- IC50 (HT-29; HT-29, single agent, read-out: Cmpd. B IC50): 84 nM
- IC50 (GP2d; read-out: Cmpd. B IC50): 756 nM
- IC50 (KM12; read-out: Cmpd. B IC50): 339 nM
- IC50 (NCI-H716; read-out: Cmpd. B IC50): > 2700 nM
- IC50 (SW948; read-out: Cmpd. B IC50): 89.8 nM
- IC50 (C2BBe1; read-out: Cmpd. B IC50): 1580 nM
- IC50 (SNU-C1; read-out: Cmpd. B IC50): 15.1 nM
- IC50 (LoVo; read-out: Cmpd. B IC50): 148 nM
- IC50 (COLO205; read-out: Cmpd. B IC50): 34.4 nM
- IC50 (SW48; read-out: Cmpd. B IC50): 78.4 nM
- IC50 (HCT-15; read-out: Cmpd. B IC50): > 2700 nM
- IC50 ([1]; Mean over colorectal cell lines, read-out: Mean Cmpd. B IC50): 1160 nM
- IC50 ([1]; Median over colorectal cell lines, read-out: Median Cmpd. B IC50): 76 nM
